Experimental data: the NIST ThermoML archive (doi:10.1021/je200477s)

Test: wn = mass fraction of the nth substance listed
Conditions: 101 kPa, Liquid, Pycnometric method

CCCCn1cc[n+](C)c1.COS(=O)(=O)[O-] [1-butyl-3-methylimidazolium methyl sulfate] + O
mass density [kg/m3]
Conditions	w1 = 0.1501	w1 = 0.2002	w1 = 0.2991	w1 = 0.4993	w1 = 0.6519	w1 = 0.8012	w1 = 0.8701	w1 = 0.9325	w1 = 1
293.15 K	1025.8	1035.9	1056.1	1100.2	1134.9	1169.4	1184.8	1198.2	1211.7
295.15 K	1025.1	1035.2	1055.2	1099	1133.5	1168	1183.4	1196.8	1210.4
297.15 K	1024.4	1034.4	1054.3	1097.7	1132.2	1166.6	1182.1	1195.5	1209.1
299.15 K	1023.7	1033.6	1053.3	1096.5	1130.7	1165.2	1180.7	1194.1	1207.7
301.15 K	1022.9	1032.8	1052.3	1095.2	1129.4	1163.8	1179.3	1192.8	1206.4
303.15 K	1022.2	1031.9	1051.3	1093.9	1128	1162.4	1177.9	1191.4	1205.1

O [water] + CCCCn1cc[n+](C)c1.COS(=O)(=O)[O-]
w2 = 0
Conditions	mass density [kg/m3]
293.15 K	998.3
295.15 K	997.9
297.15 K	997.4
299.15 K	996.9
301.15 K	996.3
